test system: Acinetobacter baumannii (Ab23); experiment: MIC shift assay of antibiotics (broth microdilution); type: cell-based; conditions: compound concentration 4 μM; fold shift of colistin MIC; nc = no changeover or no shift
Protocol: Minimum inhibitory concentration (MIC) shift assays were performed to determine if the test compounds could alter the MIC of existing antibacterial drugs (e.g., ciprofloxacin and colistin) for E. coli, Acinetobacter baumannii, Klebsiella pneumoniae, Pseudomonas aeruginosa, and Enterobacter cloacae. The MIC shift assay is based on the standard broth microdilution MIC determination protocol of Wiegand et al, Nat Protoc. 3(2):163-75 (2008), with slight modifications that allow for the screening of up to seven test compounds in a single plate.
On the day before an assay, bacteria were grown overnight in cation-adjusted Mueller Hinton broth (CAMHB; Teknova, Hollister, Calif.) at 37° C. in an orbital shaker and sub-cultured at a 1:200 dilution the following morning. The cells were grown to OD600=0.5 to 0.8 and then diluted to OD600=0.01. From a serial dilution of each antibiotic at (50 μL of 2× concentrated stock solutions) several concentrations were added to the wells of a sterile, transparent round-bottom 96-well plate (Phenix Research Products, Candler, N.C.), and diluted cells (50 μL) were added to the plates for a starting OD600 of 0.005. […] A row of wells lacking test compound but containing the antibiotic was used to determine the MIC of that antibiotic alone. A column of wells lacking both antibiotic and test compound served as a growth control, and an additional column containing only CAMHB was included as a sterile blank control.
The plates were incubated for 18 to 20 h at 37° C. in an orbital shaker, and the cell density (OD600) was determined the following day in a microplate reader (PolarStar Optima, BMG Labtech). The MIC shift was determined by comparing the MIC of the antibiotic alone to the MIC of the antibiotic plus test compound.

Compound	colistin MIC shift, Ab23 at (compd concentration)
3,3′-(propane-2,2-diyl)bis(5,6-dichloro-1H-indole) [compound 461]	64x
CCN(CC)CCCC(C)Nc1nc(/C=C/c2ccc3ccccc3c2)nc2cc(Cl)ccc12 (racemic) [compound 305]	4x
CCN(CC)CCCC(C)Nc1nc(/C=C/c2ccc(Cl)c(Cl)c2)nc2c(C(F)(F)F)cccc12 (racemic) [compound 312]	16x
CCN(CC)CCCC(C)Nc1nc(/C=C/c2ccc(Cl)c(Cl)c2)nc2c([N+](=O)[O-])cccc12 (racemic) [compound 314]	8x
CCN(CC)CCCC(C)Nc1nc(/C=C/c2ccc(Cl)c(Cl)c2)nc2cc(C(F)(F)F)ccc12 (racemic) [compound 315]	4-8x
CCN(CC)CCCC(C)Nc1nc(/C=C/c2ccc(Cl)c(Cl)c2)nc2c(Br)cccc12 (racemic) [compound 316]	2-8x
CCN(CC)CCCC(C)Nc1nc(/C=C/c2ccc(Cl)c(Cl)c2)nc2ccc(Cl)cc12 (racemic) [compound 317]	2x
CCN(CC)CCCC(C)Nc1nc(/C=C/c2ccc(Cl)c(Cl)c2)nc2ccc(Br)cc12 (racemic) [compound 318]	2x
CCN(CC)CCCC(C)Nc1nc(/C=C/c2ccc(Cl)c(Cl)c2)nc2c(F)cccc12 (racemic) [compound 319]	2x
CCN(CC)CCCC(C)Nc1nc(/C=C/c2ccc(Cl)c(Cl)c2)nc2c(Cl)cccc12 (racemic) [compound 320]	2x
CCN(CC)CCCC(C)Nc1nc(/C=C/c2ccc(Cl)c(Cl)c2)nc2cc(Cl)ccc12 (racemic) [compound 325]	4x
CCN(CC)CCCC(C)Nc1nc(-c2cn(Cc3ccccc3)c3c(Cl)cccc23)nc2c(F)cccc12 (racemic) [compound 564]	4x
CCN(CC)CCCC(C)Nc1nc(-c2cn(Cc3ccccc3)c3c(Cl)cccc23)nc2c(Cl)cccc12 (racemic) [compound 566]	8x
CCN(CC)CCCC(C)Nc1nc(-c2cn(Cc3ccccc3)c3c(Cl)cccc23)nc2c(Br)cccc12 (racemic) [compound 568]	4x
CCN(CC)CCCC(C)Nc1nc(-c2cn(Cc3ccc(C)cc3)c3c(Cl)cccc23)nc2c(C)cccc12 (racemic) [compound 572]	4x
CCN(CC)CCCC(C)Nc1nc(-c2cn(Cc3ccc(Cl)cc3)c3c(Cl)cccc23)nc2c(C)cccc12 (racemic) [compound 576]	8x
CCN(CC)CCCC(C)Nc1nc(-c2cn(Cc3cccc(Cl)c3)c3c(Cl)cccc23)nc2c(C)cccc12 (racemic) [compound 578]	16x
CCNCCCC(C)Nc1nc(-c2cn(Cc3ccccc3)c3c(Cl)cccc23)nc2c(C)cccc12 (racemic) [compound 581]	4x

Compound	colistin MIC shift, Ab23 at (compd concentration)
CCN(CC)CCCC(C)Nc1nc(-c2cn(Cc3ccccc3)c3c(Cl)cccc23)nc2cc(Cl)ccc12 (racemic) [compound 584]	8x
COc1ccc2c(NCCCN(C)C)nc(/C=C/c3ccc(Cl)c(Cl)c3)nc2c1C [335a]	8x
CN(C)CCOC(=O)n1cc(-c2ccc(Cl)c(Cl)c2)c2cc(Cl)ccc21 [362a]	8x
CCC(N)C(=O)n1cc(/C=C/c2ccc(Cl)c(Cl)c2)c2cc(Br)ccc21 (stereo not shown) [362d]	32x
CN(C)CC(=O)n1cc(/C=C/c2ccc(Cl)c(Cl)c2)c2cc(Br)ccc21 [362e]	32x
CCC(N)C(=O)n1cc(-c2ccc(Cl)c(Cl)c2)c2cc(Cl)ccc21 (stereo not shown) [362f]	64x
CN1CCN(CC(=O)n2cc(-c3ccc(Cl)c(Cl)c3)c3cc(Cl)ccc32)CC1 [362g]	16x
Cc1cccc2c(NCCCN)nc(-c3cccc(-c4cc(C(F)(F)F)ccc4F)c3)nc12 [491a]	128x
Cc1cccc2c(NCCCN)nc(-c3cc(Br)cc(C(F)(F)F)c3)nc12 [524a]	128x
Cc1cccc2c(NCCCN(C)C)nc(-c3cc(-c4ccccn4)cc(C(F)(F)F)c3)nc12 [524b]	16x
Cc1cccc2c(NCCCN(C)C)nc(-c3cc(-c4cncnc4)cc(C(F)(F)F)c3)nc12 [524c]	2x
Cc1c(-c2ccccc2)ccc2c(NCCCN(C)C)nc(-c3cc(Br)cc(C(F)(F)F)c3)nc12 [524d]	16-32x
Cc1c(-c2ccccc2)ccc2c(NCCCN(C)C)nc(-c3cc(-c4ccccc4)cc(C(F)(F)F)c3)nc12 [524e]	4x
Cc1cccc2c(NCCN(C)C)nc(-c3cc(-c4ccccc4)cc(C(F)(F)F)c3)nc12 [524f]	32x
Cc1cc(Br)cc2c(NCCCN(C)C)nc(-c3cc(Br)cc(C(F)(F)F)c3)nc12 [524g]	16x
Cc1cccc2c(NCCCN)nc(-c3cc(-c4ccccc4)cc(C(F)(F)F)c3)nc12 [524i]	128x
Cc1cccc2c(NCCCN)nc(-c3cc(-c4ccccc4Cl)cc(C(F)(F)F)c3)nc12 [524m]	128x

same assay, conditions: compound concentration 8 μM; fold shift of colistin MIC; nc = no changeover or no shift

Compound	colistin MIC shift, Ab23 at (compd concentration)
CCN(CC)CCCC(C)Nc1nc(/C=C/c2cccc(Br)c2)nc2cc(Cl)ccc12 (racemic) [compound 306]	4x
CCN(CC)CCCC(C)Nc1nc(/C=C/c2ccc(C(F)(F)F)cc2)nc2cc(Cl)ccc12 (racemic) [compound 307]	4x

same assay, conditions: compound concentration 10 μM; fold shift of colistin MIC; nc = no changeover or no shift

Compound	colistin MIC shift, Ab23 at (compd concentration)
CCN(CC)CCCC(C)Nc1nc(/C=C/c2ccc(C(=O)OC)cc2)nc2cc(Cl)ccc12 (racemic) [compound 309]	4x
CCN(CC)CCCC(C)Nc1nc(/C=C/c2ccc(Cl)cc2)nc2cc(Cl)ccc12 (racemic) [compound 310]	8x
CCN(CC)CCCC(C)Nc1nc(/C=C/c2ccc(Cl)c(Cl)c2)nc2cc(F)c(F)cc12 (racemic) [compound 321]	8x
CCN(CC)CCCC(C)Nc1nc(-c2cn(Cc3ccccc3)c3c(Cl)cccc23)nc2ccccc12 (racemic) [compound 562]	8x
CCN(CC)CCCC(C)Nc1nc(-c2cn(Cc3ccccc3)c3c(Cl)cccc23)nc2c(-c3ccncc3)cccc12 (racemic) [compound 570]	2x
CCN(CC)CCCC(C)Nc1nc(-c2cn(Cc3cccc(C)c3)c3c(Cl)cccc23)nc2c(C)cccc12 (racemic) [compound 574]	8x

From patent publication US20160168140A1, “HETEROCYCLIC COMPOUNDS AS ANTIBIOTIC POTENTIATORS” (priority 2014, published 2016)
